Experimental data taken from patent US9951088B2, “D2 receptor modulators and methods of use thereof in the treatment of diseases and disorders” (SUNOVION PHARMACEUTICALS INC., priority 2012, dated 2018).

What was measured:
[1] = biological target: T1, long isoform of human D2 receptor (Homo sapiens, UniProt P14416); test: Arrestin Agonist Assay (DRD2L PathHunter CHO-K1 cells, β-arrestin recruitment)
[2] = biological target: T1, long isoform of human D2 receptor; test: Arrestin Antagonist Assay (DRD2L PathHunter CHO-K1 cells, vs EC80 dopamine); details: for Emax: CHO-K1, read-out: β-arrestin (antagonist mode) Imax
[3] = biological target: T1, long isoform of human D2 receptor; test: cAMP HTRF Agonist Assay (DRD2L PathHunter CHO-K1 cells, forskolin-stimulated)
[4] = CHO-K1, read-out: β-arrestin (agonist mode) Emax
[5] = CHO-K1, read-out: cAMP (agonist mode) Emax
[6] = CHO-K1, read-out: Emax in β-arrestin agonist assay
[7] = CHO-K1, read-out: Emax in cAMP agonist assay

T1 sequence (P14416 whole entry, canonical isoform): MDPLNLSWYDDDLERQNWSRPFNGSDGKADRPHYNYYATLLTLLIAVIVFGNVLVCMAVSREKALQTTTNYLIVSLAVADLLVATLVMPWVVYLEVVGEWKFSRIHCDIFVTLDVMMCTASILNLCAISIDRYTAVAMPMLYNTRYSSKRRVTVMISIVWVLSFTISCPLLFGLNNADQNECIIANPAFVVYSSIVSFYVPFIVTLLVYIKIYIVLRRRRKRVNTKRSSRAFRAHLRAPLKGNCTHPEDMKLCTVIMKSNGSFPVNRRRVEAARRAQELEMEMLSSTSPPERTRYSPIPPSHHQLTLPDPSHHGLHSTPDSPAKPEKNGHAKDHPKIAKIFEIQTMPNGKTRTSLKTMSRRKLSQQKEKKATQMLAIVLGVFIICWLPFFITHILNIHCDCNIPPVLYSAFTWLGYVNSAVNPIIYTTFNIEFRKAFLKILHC

N#Cc1cccc2c1CCN(CCCCOc1ccc3c(n1)NC(=O)CC3)C2 [Compound 78, 2-(4-((7-oxo-5,6,7,8-tetrahydro-1,8-naphthyridin-2-yl)oxy)butyl)-1,2,3,4-tetrahydroisoquinoline-5-carbonitrile]
EC50 [1]: 10 to 100 nM | Emax [1, 4]: 50 to 75% | IC50 [2]: > 10000 nM | Emax [2]: < 10% | IC50 [3]: 10 to 100 nM | Emax [3, 5]: 50 to 75%

CCOc1ccccc1N1CCN(CCCCOc2ccc3cn[nH]c3c2)CC1 [Compound 93, 6-(4-(4-(2-ethoxyphenyl)piperazin-1-yl)butoxy)-1H-indazole]
EC50 [1]: < 10 nM | Emax [1, 4]: 10 to 25% | IC50 [2]: 10 to 100 nM | Emax [2]: > 75% | IC50 [3]: < 10 nM | Emax [3, 5]: 25 to 50%

O=C1CCc2ccc(OCCCCN3CCc4c(cnn4-c4cccc(Cl)c4)C3)cc2N1 [Compound 32, 7-(4-(1-(3-chlorophenyl)-6,7-dihydro-1H-pyrazolo[4,3-c]pyridin-5(4H)-yl)butoxy)-3,4-dihydroquinolin-2(1H)-one]
EC50 [1]: > 10000 nM | Emax [1, 4]: < 10% | IC50 [2]: < 10 nM | Emax [2]: > 75% | IC50 [3]: > 10000 nM | Emax [3, 5]: < 10%

COc1ccc2c(c1)CCN(CCCCOc1ccc3c(n1)NC(=O)CC3)C2 [Compound 71, 7-(4-(6-methoxy-3,4-dihydroisoquinolin-2(1H)-yl)butoxy)-3,4-dihydro-1,8-naphthyridin-2(1H)-one]
EC50 [1]: > 10000 nM | Emax [1, 4]: < 10% | IC50 [2]: 10 to 100 nM | Emax [2]: > 75% | IC50 [3]: > 10000 nM | Emax [3, 5]: < 10%

Oc1cccc2ccc(OCCCCN3CCN(c4cccc(Cl)c4Cl)CC3)nc12 [Compound 5, 2-(4-(4-(2,3-dichlorophenyl)piperazin-1-yl)butoxy)quinolin-8-ol]
EC50 [1]: 10 to 100 nM | Emax [1, 4]: 10 to 25% | IC50 [2]: 100 to 1000 nM | Emax [2]: > 75% | IC50 [3]: 10 to 100 nM | Emax [3, 5]: 25 to 50%

O=C1CCc2ccc(OCCCCN3CCc4sccc4C3)cc2N1 [Compound 27, 7-(4-(6,7-dihydrothieno[3,2-c]pyridin-5(4H)-yl)butoxy)-3,4-dihydroquinolin-2(1H)-one]
EC50 [1]: > 10000 nM | Emax [1, 4]: < 10% | IC50 [2]: 10 to 100 nM | Emax [2]: > 75% | IC50 [3]: < 10 nM | Emax [3, 5]: 10 to 25%

O=C1NCCc2ccc(OCCCCN3CCc4nn(-c5ccccn5)cc4C3)nc2N1 [Compound 90, 8-(4-(2-(pyridin-2-yl)-6,7-dihydro-2H-pyrazolo[4,3-c]pyridin-5(4H)-yl)butoxy)-4,5-dihydro-1H-pyrido[2,3-d][1,3]diazepin-2(3H)-one]
EC50 [1]: 10 to 100 nM | Emax [1, 4]: > 75% | IC50 [2]: > 10000 nM | Emax [2]: < 10% | IC50 [3]: < 10 nM | Emax [3, 5]: > 75%

Clc1ccccc1N1CCN(CCCCOc2ccc3cn[nH]c3c2)CC1 [Compound 97, 6-(4-(4-(2-chlorophenyl)piperazin-1-yl)butoxy)-1H-indazole]
EC50 [1]: < 10 nM | Emax [1, 4]: 10 to 25% | IC50 [2]: 10 to 100 nM | Emax [2]: 50 to 75% | IC50 [3]: < 10 nM | Emax [3, 5]: 50 to 75%

O=c1ccc2ccc(OCCCCN3CCc4c(Cl)cccc4C3)nc2[nH]1 [Compound 60, 7-(4-(5-chloro-3,4-dihydroisoquinolin-2(1H)-yl)butoxy)-1,8-naphthyridin-2(1H)-one]
EC50 [1]: < 10 nM | Emax [1, 4]: > 75% | IC50 [2]: > 10000 nM | Emax [2]: < 10% | IC50 [3]: < 10 nM | Emax [3, 5]: > 75%

Clc1cccc(N2CCN(CCCCOc3cccc(-c4cc[nH]n4)n3)CC2)c1Cl [Compound 46, 1-(4-((6-(1H-pyrazol-3-yl)pyridin-2-yl)oxy)butyl)-4-(2,3-dichlorophenyl)piperazine]
EC50 [1]: < 10 nM | Emax [1, 4]: 10 to 25% | IC50 [2]: < 10 nM | Emax [2]: 50 to 75% | IC50 [3]: < 10 nM | Emax [3, 5]: 50 to 75%

O=c1ccc2ccc(OCCCCN3CCc4c(cccc4C(F)(F)F)C3)nc2[nH]1 [Compound 61, 7-(4-(5-(trifluoromethyl)-3,4-dihydroisoquinolin-2(1H)-yl)butoxy)-1,8-naphthyridin-2(1H)-one]
EC50 [1]: 10 to 100 nM | Emax [1, 4]: > 75% | IC50 [2]: > 10000 nM | Emax [2]: < 10% | IC50 [3]: < 10 nM | Emax [3, 5]: > 75%

O=C1CCc2ccc(OCCCCN3CCc4c(cnn4-c4ccccc4)C3)cc2N1 [Compound 31, 7-(4-(1-phenyl-6,7-dihydro-1H-pyrazolo[4,3-c]pyridin-5(4H)-yl)butoxy)-3,4-dihydroquinolin-2(1H)-one]
EC50 [1]: < 10 nM | Emax [1, 4]: > 75% | IC50 [2]: > 10000 nM | Emax [2]: < 10% | IC50 [3]: < 10 nM | Emax [3, 5]: > 75%

Cc1ccccc1N1CCN(CCCCOc2ccc3cn[nH]c3c2)CC1 [Compound 96, 6-(4-(4-(o-tolyl)piperazin-1-yl)butoxy)-1H-indazole]
EC50 [1]: 10 to 100 nM | Emax [1, 4]: 10 to 25% | IC50 [2]: 100 to 1000 nM | Emax [2]: > 75% | IC50 [3]: 10 to 100 nM | Emax [3, 5]: 25 to 50%

O=C1NCCc2ccc(OCCCCN3CCc4c(Cl)cccc4C3)nc2N1 [Compound 88, 8-(4-(5-chloro-3,4-dihydroisoquinolin-2(1H)-yl)butoxy)-4,5-dihydro-1H-pyrido[2,3-d][1,3]diazepin-2(3H)-one]
EC50 [1]: 10 to 100 nM | Emax [1, 4]: 25 to 50% | IC50 [2]: 100 to 1000 nM | Emax [2]: 25 to 50% | IC50 [3]: < 10 nM | Emax [3, 5]: 50 to 75%

COc1cccnc1N1CCN(CCCCOc2ccc3cn[nH]c3c2)CC1 [Compound 99, 6-(4-(4-(3-methoxypyridin-2-yl)piperazin-1-yl)butoxy)-1H-indazole]
EC50 [1]: < 10 nM | Emax [1, 4]: 10 to 25% | IC50 [2]: 10 to 100 nM | Emax [2]: > 75% | IC50 [3]: < 10 nM | Emax [3, 5]: 25 to 50%

O=C1CCc2ccc(OCCCCN3CCc4ccccc4C3)nc2N1 [Compound 68, 7-(4-(3,4-dihydroisoquinolin-2(1H)-yl)butoxy)-3,4-dihydro-1,8-naphthyridin-2(1H)-one]
EC50 [1]: > 10000 nM | Emax [1, 4]: < 10% | IC50 [2]: 10 to 100 nM | Emax [2]: > 75% | IC50 [3]: < 10 nM | Emax [3, 5]: 25 to 50%

CS(=O)(=O)Nc1cccc(OCCCCN2CCc3ccccc3C2)n1 [Compound 42, N-(6-(4-(3,4-dihydroisoquinolin-2(1H)-yl)butoxy)pyridin-2-yl)methanesulfonamide]
EC50 [1]: > 10000 nM | Emax [1, 4]: < 10% | IC50 [2]: 1000 to 10000 nM | Emax [2]: > 75% | IC50 [3]: > 10000 nM | Emax [3, 5]: < 10%

c1ccc(N2CCN(CCCCOc3ccc4cn[nH]c4n3)CC2)nc1 [Compound 4, 6-(4-(4-(pyridin-2-yl)piperazin-1-yl)butoxy)-1H-pyrazolo[3,4-b]pyridine]
EC50 [1]: 10 to 100 nM | Emax [1, 4]: > 75% | IC50 [2]: > 10000 nM | Emax [2]: < 10% | IC50 [3]: < 10 nM | Emax [3, 5]: > 75%

O=C1NCCc2ccc(OCCCCN3CCc4sccc4C3)nc2N1 [Compound 86, 8-(4-(6,7-dihydrothieno[3,2-c]pyridin-5(4H)-yl)butoxy)-4,5-dihydro-1H-pyrido[2,3-d][1,3]diazepin-2(3H)-one]
EC50 [1]: > 10000 nM | Emax [1, 4]: < 10% | IC50 [2]: 10 to 100 nM | Emax [2]: > 75% | IC50 [3]: > 10000 nM | Emax [3, 5]: < 10%

O=c1ccc2ccc(OCCCCN3CCc4cccc(C(F)(F)F)c4C3)nc2[nH]1 [Compound 63, 7-(4-(8-(trifluoromethyl)-3,4-dihydroisoquinolin-2(1H)-yl)butoxy)-1,8-naphthyridin-2(1H)-one]
EC50 [1]: > 10000 nM | Emax [1, 4]: < 10% | IC50 [2]: 10 to 100 nM | Emax [2]: > 75% | IC50 [3]: > 10000 nM | Emax [3, 5]: < 10%

N#Cc1ccc2c(c1)CCN(CCCCOc1ccc3cccc(O)c3n1)C2 [Compound 15, 2-(4-((8-hydroxyquinolin-2-yl)oxy)butyl)-1,2,3,4-tetrahydroisoquinoline-6-carbonitrile]
EC50 [1]: > 10000 nM | Emax [1, 4]: < 10% | IC50 [2]: 1000 to 10000 nM | Emax [2]: > 75% | IC50 [3]: > 10000 nM | Emax [3, 5]: < 10%

N#Cc1ccc2c(c1)CCN(CCCCOc1ccc3ccc(=O)[nH]c3n1)C2 [Compound 57, 2-(4-((7-oxo-7,8-dihydro-1,8-naphthyridin-2-yl)oxy)butyl)-1,2,3,4-tetrahydroisoquinoline-6-carbonitrile]
EC50 [1]: > 10000 nM | Emax [1, 4]: < 10% | IC50 [2]: 10 to 100 nM | Emax [2]: > 75% | IC50 [3]: > 10000 nM | Emax [3, 5]: < 10%

N#Cc1ccc2c(c1)CCN(CCCCOc1ccc3c(n1)NC(=O)CC3)C2 [Compound 73, 2-(4-((7-oxo-5,6,7,8-tetrahydro-1,8-naphthyridin-2-yl)oxy)butyl)-1,2,3,4-tetrahydroisoquinoline-6-carbonitrile]
EC50 [1]: > 10000 nM | Emax [1, 4]: < 10% | IC50 [2]: 100 to 1000 nM | Emax [2]: > 75% | IC50 [3]: > 10000 nM | Emax [3, 5]: < 10%

O=c1ccc2ccc(OCCCCN3CCc4sccc4C3)nc2[nH]1 [Compound 53, 7-(4-(6,7-dihydrothieno[3,2-c]pyridin-5(4H)-yl)butoxy)-1,8-naphthyridin-2(1H)-one]
EC50 [1]: > 10000 nM | Emax [1, 4]: < 10% | IC50 [2]: 10 to 100 nM | Emax [2]: > 75% | IC50 [3]: < 10 nM | Emax [3, 5]: 10 to 25%

Cc1cccc(N2CCN(CCCCOc3ccc4cccc(O)c4n3)CC2)c1C [Compound 7, 2-(4-(4-(2,3-dimethylphenyl)piperazin-1-yl)butoxy)quinolin-8-ol]
EC50 [1]: > 10000 nM | Emax [1, 4]: < 10% | IC50 [2]: 100 to 1000 nM | Emax [2]: > 75% | IC50 [3]: 10 to 100 nM | Emax [3, 5]: 25 to 50%

CCCN(CCC)CCc1cccc2c1CC(=O)N2 [ropinirole, reference compound]
Emax [1, 6]: ≥ 90% | Emax [3, 7]: ≥ 90%

CCCN[C@H]1CCc2nc(N)sc2C1 [pramipexole, reference compound]
Emax [1, 6]: ≥ 90% | Emax [3, 7]: ≥ 90%
